# Measurements from BindingDB's records for PubMed 8996185 (SynthÉLabo Recherche, 1997).
# Values joined by “and” are separate entries in the source; they are usually repeats but may differ in a detail not shown here. Identical values can stand only once. Counter-ions that a name gives are not always drawn.
# How the values were obtained:
# [1] = molecular target: 5-hydroxytryptamine receptor 4 (Cavia porcellus, UniProt O70528)
# [2] = molecular target: T1, Type-1 angiotensin II receptor (Oryctolagus cuniculus, UniProt P34976)
# T1 sequence (P34976 whole entry): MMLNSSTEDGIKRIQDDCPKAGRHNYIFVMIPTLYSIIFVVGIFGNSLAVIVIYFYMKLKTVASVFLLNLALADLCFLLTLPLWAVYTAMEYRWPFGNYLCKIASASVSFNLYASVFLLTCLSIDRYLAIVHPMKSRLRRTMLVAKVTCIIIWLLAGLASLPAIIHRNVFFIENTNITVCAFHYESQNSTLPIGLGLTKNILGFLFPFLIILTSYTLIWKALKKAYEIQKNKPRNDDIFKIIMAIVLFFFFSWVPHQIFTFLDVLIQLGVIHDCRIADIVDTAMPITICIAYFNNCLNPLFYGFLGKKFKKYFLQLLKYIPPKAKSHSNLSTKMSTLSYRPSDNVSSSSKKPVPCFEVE
# [3] = molecular target: Glutamate receptor ionotropic, NMDA 1 (Rattus norvegicus, UniProt P35439)
# Adenosine receptor A1 = molecular target: T2, Adenosine receptor A1 (Rattus norvegicus, UniProt P25099)
# T2 sequence (P25099 whole entry): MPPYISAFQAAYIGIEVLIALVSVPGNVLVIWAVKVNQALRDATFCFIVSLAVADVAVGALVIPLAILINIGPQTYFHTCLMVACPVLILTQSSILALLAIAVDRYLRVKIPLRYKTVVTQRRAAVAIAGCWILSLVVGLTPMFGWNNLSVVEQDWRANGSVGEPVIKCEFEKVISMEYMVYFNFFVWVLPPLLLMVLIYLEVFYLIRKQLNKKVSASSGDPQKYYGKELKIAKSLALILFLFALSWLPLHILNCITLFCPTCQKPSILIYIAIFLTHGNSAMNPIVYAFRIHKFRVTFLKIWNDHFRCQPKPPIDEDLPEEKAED
# D(3) dopamine receptor = D(3) dopamine receptor (Bos taurus, UniProt F1N454)
# [4] = molecular target: Glutamate receptor ionotropic, kainate 1 (Rattus norvegicus, UniProt P22756)
# [5] = molecular target: T3, Glycine receptor subunit alpha-1 (Rattus norvegicus, UniProt P07727)
# T3 sequence (P07727 whole entry): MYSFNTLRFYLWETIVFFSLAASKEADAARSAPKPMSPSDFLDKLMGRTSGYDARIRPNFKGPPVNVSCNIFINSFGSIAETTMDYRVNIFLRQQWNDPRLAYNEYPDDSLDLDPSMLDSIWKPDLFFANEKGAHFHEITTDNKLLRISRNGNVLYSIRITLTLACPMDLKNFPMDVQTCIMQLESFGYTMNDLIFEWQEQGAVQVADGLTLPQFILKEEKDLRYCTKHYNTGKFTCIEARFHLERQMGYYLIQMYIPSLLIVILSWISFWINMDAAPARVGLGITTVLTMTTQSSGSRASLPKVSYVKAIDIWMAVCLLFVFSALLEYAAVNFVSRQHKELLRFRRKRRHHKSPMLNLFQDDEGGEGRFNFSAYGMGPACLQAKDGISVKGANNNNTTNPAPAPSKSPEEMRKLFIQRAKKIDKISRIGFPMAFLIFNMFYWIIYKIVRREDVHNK
# [6] = molecular target: Gamma-aminobutyric acid type B receptor subunit 1 (UniProt Q9Z0U4)
# [7] = molecular target: T4, Glycine amidinotransferase, mitochondrial (Rattus norvegicus, UniProt P50442)
# T4 sequence (P50442 whole entry): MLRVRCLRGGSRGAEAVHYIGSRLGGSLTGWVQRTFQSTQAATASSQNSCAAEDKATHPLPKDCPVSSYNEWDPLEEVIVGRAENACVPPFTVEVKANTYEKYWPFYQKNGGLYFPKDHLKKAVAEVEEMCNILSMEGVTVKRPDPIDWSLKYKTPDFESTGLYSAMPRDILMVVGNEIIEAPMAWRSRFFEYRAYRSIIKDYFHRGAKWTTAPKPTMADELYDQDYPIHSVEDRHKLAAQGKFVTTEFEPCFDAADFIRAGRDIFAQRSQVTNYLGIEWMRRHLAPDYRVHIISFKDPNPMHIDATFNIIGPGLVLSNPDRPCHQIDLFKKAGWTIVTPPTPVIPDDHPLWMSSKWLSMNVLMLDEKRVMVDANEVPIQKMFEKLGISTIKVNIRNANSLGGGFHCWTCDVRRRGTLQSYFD
# [8] = molecular target: T5, Type-2 angiotensin II receptor (Rattus norvegicus, UniProt P35351)
# T5 sequence (P35351 whole entry): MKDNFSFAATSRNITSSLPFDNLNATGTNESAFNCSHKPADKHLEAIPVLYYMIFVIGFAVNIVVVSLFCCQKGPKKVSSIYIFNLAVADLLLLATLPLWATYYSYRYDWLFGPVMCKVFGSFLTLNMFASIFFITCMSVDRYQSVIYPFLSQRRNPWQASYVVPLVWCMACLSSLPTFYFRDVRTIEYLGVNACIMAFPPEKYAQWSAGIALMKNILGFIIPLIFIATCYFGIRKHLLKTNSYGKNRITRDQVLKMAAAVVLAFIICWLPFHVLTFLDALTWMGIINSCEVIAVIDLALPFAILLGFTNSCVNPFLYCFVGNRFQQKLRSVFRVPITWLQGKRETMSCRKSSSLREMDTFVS
# Nischarin = Nischarin (Rattus norvegicus, UniProt Q4G017)
# Adenosine receptor A2a = Adenosine receptor A2a (Rattus norvegicus, UniProt P30543)
# [9] = molecular target: Sigma non-opioid intracellular receptor 1 (Mus musculus, UniProt O55242)
# [10] = molecular target: Voltage-dependent L-type calcium channel subunit alpha-1C (Rattus norvegicus, UniProt P22002)
# Glutamate receptor 3 = Glutamate receptor 3 (Rattus norvegicus, UniProt P19492)
# [11] = molecular target: Beta-2 adrenergic receptor (Rattus norvegicus, UniProt P10608)
# D(2) dopamine receptor = D(2) dopamine receptor (Rattus norvegicus, UniProt P61169)
# [12] = molecular target: Alpha-2C adrenergic receptor (Rattus norvegicus, UniProt P22086)
# [13] = molecular target: 5-hydroxytryptamine receptor 1B (Rattus norvegicus, UniProt P28564)
# [14] = molecular target: 5-hydroxytryptamine receptor 1A (Rattus norvegicus, UniProt P19327)
# [15] = molecular target: Gamma-aminobutyric acid (GABA) B receptor 1 (Rattus norvegicus, UniProt Q6MFX8)
# [16] = molecular target: Gamma-aminobutyric acid receptor subunit alpha-1 (Rattus norvegicus, UniProt P62813)
# [17] = molecular target: 5-hydroxytryptamine receptor 3A (Rattus norvegicus, UniProt P35563)
# [18] = molecular target: Muscarinic acetylcholine receptor M2 (Rattus norvegicus, UniProt P10980)
# [19] = molecular target: Sodium-dependent dopamine transporter (Rattus norvegicus, UniProt P23977)
# [20] = molecular target: 5-hydroxytryptamine receptor 2C (Sus scrofa, UniProt G7ZKZ7)
# [21] = molecular target: Sodium channel protein type 10 subunit alpha (Rattus norvegicus, UniProt Q62968)
# [22] = molecular target: 5-hydroxytryptamine receptor 2A (Rattus norvegicus, UniProt P14842)
# Histamine H1 receptor = Histamine H1 receptor (Cavia porcellus, UniProt P31389)
# [23] = molecular target: Alpha-1B adrenergic receptor (Rattus norvegicus, UniProt P15823)
# [24] = molecular target: 5-hydroxytryptamine 1D receptor (Bos taurus, UniProt Q8MI13)
# 5-hydroxytryptamine 1D receptor, sequence (Q8MI13 whole entry): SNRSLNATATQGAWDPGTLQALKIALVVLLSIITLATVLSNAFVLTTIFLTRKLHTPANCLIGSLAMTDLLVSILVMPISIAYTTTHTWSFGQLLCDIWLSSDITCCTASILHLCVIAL
# Nischarin, sequence (Q4G017 whole entry): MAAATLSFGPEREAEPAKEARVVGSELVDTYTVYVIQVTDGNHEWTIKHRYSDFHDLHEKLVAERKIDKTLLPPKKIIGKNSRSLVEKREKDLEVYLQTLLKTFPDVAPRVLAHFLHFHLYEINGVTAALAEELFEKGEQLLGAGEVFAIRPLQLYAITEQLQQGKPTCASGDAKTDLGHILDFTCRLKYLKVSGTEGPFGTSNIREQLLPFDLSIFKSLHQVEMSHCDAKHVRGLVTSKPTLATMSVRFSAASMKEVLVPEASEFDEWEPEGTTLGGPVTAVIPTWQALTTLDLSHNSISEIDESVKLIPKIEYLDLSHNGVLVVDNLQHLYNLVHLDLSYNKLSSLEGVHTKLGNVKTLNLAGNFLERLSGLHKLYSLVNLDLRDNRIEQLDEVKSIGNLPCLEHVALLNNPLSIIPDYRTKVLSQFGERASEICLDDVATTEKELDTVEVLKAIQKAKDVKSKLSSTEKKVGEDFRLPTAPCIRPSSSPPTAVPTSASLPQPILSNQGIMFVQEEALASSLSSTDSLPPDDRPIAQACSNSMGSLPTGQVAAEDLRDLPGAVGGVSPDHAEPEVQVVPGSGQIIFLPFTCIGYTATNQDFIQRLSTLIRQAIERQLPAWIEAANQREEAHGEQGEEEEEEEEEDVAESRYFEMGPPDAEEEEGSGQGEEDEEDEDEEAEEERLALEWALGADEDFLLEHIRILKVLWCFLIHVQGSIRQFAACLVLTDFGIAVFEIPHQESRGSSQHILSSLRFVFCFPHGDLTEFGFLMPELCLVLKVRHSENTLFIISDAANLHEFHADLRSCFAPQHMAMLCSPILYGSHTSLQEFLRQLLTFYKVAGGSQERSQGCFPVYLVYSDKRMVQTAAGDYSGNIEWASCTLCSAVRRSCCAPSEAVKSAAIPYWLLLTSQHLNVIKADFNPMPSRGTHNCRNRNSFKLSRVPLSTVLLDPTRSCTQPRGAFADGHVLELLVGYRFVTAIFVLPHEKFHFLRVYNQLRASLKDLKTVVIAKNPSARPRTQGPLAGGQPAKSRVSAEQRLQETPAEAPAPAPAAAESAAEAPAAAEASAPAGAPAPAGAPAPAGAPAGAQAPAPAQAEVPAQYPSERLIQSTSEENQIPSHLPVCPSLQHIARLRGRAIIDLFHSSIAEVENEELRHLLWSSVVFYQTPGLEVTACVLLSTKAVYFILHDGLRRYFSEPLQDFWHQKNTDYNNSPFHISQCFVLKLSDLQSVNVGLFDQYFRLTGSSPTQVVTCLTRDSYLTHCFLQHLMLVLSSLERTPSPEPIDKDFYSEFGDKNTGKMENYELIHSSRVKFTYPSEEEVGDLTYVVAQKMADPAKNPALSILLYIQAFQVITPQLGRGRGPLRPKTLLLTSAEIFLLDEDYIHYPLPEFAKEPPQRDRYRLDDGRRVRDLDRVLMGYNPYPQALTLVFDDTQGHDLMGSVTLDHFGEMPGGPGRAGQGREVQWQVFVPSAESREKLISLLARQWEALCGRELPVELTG
# Glutamate receptor 3, sequence (P19492 whole entry): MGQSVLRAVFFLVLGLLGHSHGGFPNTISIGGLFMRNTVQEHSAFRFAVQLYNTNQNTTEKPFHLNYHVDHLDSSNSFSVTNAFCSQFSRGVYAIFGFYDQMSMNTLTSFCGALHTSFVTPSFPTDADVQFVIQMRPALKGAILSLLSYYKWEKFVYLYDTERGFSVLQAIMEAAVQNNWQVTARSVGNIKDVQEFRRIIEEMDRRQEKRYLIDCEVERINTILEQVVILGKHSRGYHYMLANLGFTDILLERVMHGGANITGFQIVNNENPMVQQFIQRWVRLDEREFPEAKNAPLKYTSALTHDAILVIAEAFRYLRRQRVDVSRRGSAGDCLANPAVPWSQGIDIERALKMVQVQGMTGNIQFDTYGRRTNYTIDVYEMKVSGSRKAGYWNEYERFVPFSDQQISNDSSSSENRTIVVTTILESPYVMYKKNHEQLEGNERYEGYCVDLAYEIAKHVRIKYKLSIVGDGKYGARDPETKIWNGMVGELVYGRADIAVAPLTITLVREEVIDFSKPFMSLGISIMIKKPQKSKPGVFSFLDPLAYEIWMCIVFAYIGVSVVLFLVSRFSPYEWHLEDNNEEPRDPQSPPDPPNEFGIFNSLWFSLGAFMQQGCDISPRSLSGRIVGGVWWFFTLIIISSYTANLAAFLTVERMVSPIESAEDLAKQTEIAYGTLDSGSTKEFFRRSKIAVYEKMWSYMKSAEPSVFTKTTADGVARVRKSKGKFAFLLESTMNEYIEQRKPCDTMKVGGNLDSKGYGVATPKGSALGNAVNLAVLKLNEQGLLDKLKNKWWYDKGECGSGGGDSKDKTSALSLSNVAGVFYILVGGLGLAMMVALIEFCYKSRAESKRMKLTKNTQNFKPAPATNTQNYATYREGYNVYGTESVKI
# Beta-2 adrenergic receptor, sequence (P10608 whole entry): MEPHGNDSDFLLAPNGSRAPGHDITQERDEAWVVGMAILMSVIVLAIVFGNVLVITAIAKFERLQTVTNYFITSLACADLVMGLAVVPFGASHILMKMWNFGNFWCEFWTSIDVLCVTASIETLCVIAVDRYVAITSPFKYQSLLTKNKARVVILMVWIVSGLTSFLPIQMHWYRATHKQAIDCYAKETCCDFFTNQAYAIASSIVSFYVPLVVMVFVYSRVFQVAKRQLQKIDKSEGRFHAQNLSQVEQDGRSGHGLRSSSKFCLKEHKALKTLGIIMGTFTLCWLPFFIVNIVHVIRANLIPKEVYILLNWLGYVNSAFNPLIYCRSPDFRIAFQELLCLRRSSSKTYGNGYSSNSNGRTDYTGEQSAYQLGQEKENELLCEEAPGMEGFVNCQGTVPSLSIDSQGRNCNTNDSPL
# Adenosine receptor A2a, sequence (P30543 whole entry): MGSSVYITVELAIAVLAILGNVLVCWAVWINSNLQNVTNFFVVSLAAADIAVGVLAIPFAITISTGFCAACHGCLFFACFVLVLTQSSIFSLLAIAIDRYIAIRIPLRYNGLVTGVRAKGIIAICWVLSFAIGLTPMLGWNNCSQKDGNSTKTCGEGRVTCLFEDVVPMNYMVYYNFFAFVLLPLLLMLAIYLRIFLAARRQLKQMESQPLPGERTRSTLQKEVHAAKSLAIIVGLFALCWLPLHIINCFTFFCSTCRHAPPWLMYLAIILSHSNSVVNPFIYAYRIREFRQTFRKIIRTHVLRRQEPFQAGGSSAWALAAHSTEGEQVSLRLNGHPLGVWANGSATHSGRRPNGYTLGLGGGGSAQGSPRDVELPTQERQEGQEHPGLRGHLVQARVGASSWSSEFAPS
# 5-hydroxytryptamine receptor 4, sequence (O70528 whole entry): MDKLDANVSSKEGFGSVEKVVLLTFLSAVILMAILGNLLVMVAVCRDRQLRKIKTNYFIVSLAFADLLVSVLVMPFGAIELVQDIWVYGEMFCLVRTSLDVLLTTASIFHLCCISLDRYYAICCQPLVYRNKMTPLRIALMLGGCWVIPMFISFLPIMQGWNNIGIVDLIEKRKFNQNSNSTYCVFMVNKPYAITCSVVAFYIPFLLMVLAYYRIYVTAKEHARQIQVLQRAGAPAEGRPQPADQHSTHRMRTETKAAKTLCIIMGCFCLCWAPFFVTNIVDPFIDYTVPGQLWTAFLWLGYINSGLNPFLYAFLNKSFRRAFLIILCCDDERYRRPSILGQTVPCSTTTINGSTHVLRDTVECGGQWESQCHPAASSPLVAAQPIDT
# Glutamate receptor ionotropic, kainate 1, sequence (P22756 whole entry): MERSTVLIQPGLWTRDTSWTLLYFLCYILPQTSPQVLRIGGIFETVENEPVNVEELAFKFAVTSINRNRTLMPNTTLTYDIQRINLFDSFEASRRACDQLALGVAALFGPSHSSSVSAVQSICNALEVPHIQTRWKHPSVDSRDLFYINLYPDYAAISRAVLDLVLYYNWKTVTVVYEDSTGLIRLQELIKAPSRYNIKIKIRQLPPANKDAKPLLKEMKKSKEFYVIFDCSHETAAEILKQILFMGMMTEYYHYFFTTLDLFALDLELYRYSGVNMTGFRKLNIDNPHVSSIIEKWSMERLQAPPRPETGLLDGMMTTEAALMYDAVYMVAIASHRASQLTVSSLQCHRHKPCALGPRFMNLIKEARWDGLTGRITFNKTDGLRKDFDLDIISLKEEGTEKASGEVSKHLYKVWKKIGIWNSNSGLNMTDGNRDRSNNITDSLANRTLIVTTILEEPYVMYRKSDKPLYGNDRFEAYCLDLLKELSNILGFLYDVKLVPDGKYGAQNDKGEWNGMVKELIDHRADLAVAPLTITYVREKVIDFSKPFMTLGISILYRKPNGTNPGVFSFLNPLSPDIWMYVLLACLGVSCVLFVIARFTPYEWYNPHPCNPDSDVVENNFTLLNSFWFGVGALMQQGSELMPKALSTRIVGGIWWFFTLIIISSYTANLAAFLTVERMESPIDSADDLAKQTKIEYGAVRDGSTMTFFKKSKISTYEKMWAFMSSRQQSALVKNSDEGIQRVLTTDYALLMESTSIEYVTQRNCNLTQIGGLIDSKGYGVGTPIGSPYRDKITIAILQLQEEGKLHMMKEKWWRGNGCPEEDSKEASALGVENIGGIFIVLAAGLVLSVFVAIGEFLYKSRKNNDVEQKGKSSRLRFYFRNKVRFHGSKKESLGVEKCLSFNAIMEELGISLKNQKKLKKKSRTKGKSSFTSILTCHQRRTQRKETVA
# Sigma non-opioid intracellular receptor 1, sequence (O55242 whole entry): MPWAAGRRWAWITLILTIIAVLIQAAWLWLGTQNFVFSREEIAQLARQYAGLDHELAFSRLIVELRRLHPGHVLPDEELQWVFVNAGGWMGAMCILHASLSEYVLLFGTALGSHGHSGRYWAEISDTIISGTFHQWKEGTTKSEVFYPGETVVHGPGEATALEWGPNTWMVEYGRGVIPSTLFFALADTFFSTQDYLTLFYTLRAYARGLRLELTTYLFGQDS
Ki [1] [µM],Ki [2] [µM],Ki [3],Ki (Adenosine receptor A1) [µM],Ki (D(3) dopamine receptor) [µM],Ki [4] [µM],Ki [5] [µM],Ki [6] [µM],Ki [7] [µM],Ki [8] [µM],Ki (Nischarin) [µM],Ki (Adenosine receptor A2a) [µM],Ki [9] [µM],Ki [10] [µM],Ki (Glutamate receptor 3) [µM],Ki [11] [µM],Ki [17] [µM],Compound,other results
> 10,> 10,> 10 µM and 5 µM,> 10,0.88,> 10,> 10,> 10,> 10,> 10,> 10,> 10,6.4,> 10,> 10,> 10,–,"CN1CCN(C2=c3ccccc3=Nc3ccc(Cl)cc3N2)CC1 [6-chloro-10-(4-methylpiperazin-1-yl)-2,9-diazatricyclo[9.4.0.0^{3,8}]pentadeca-1,3(8),4,6,10,12,14-heptaene]",–
> 10,> 10,> 10 µM,> 10,0.0029,> 10,> 10,–,> 10,> 10,> 10,> 10,> 10,> 10,> 10,> 10,> 10,CCN1CCCC1CNC(=O)c1cc(S(=O)(=O)CC)c(N)cc1OC (centres undefined) [NSC_2159],Ki (D(2) dopamine receptor): 0.021 µM; Ki [12]: 1.6 µM; Ki [13]: > 10 µM; Ki [14]: > 10 µM; Ki [15]: > 10 µM; Ki [16]: > 10 µM; Ki [18]: > 10 µM; Ki [19]: > 10 µM; Ki [20]: > 10 µM; Ki [21]: > 10 µM; Ki [22]: 2 µM; Ki (Histamine H1 receptor): > 10 µM; Ki [23]: > 10 µM; Ki [24]: > 10 µM
> 10,> 10,–,> 10,–,> 10,> 10,> 10,> 10,> 10,> 10,> 10,–,–,> 10,> 10,> 10,O=C(CCCN1CCC(O)(c2ccc(Cl)cc2)CC1)c1ccc(F)cc1 [4-[4-(4-Chloro-phenyl)-4-hydroxy-piperidin-1-yl]-1-(4-fluoro-phenyl)-butan-1-one;propionate(HCl)],–
